Results as given in US20130131069A1, “METHOD FOR TREATMENT OF SOLID MALIGNANCIES INCLUDING ADVANCED OR METASTATIC SOLID MALIGNANCIES” (Boehringer Ingelheim International GmbH, priority 2011, published 2013).

How the values were obtained:
[1] = system: advanced or metastatic solid malignancies; assay: Clinical trial: toxicity guided dose escalation study, 2-hr infusion on days 1 and 8 every 3 weeks; type: in vivo
Experimental: (§1) Sequential cohorts of 3-6 patients with advanced or metastatic solid malignancies received a 2-hr infusion of volasertib on days 1 and 8 every 3 weeks in a toxicity guided dose escalation study. There were 4 prespecified doses (50-200 mg).
(§2) 27 Asian patients with advanced solid malignancies were treated. […] MTD was 150 mg for above described schedule. The median number of initiated courses was 3 over all dose groups (range 1-21). […] Two patients with bladder cancer and melanoma, respectively had partial responses.

[2] = Clinical trial: pharmacokinetics in patients; type: in vivo, human; conditions: 2-hr i.v. infusion days 1 and 8 every 3 weeks
Experimental: as §1, §2

[3] = administered at two days during a 21 day treatment cycle

CC[C@@H]1C(=O)N(C)c2cnc(Nc3ccc(C(=O)N[C@H]4CC[C@H](N5CCN(CC6CC6)CC5)CC4)cc3OC)nc2N1C(C)C [Volasertib, N-[trans-4-[4-(cyclopropylmethyl)-1-piperazinyl]cyclohexyl]-4-[[(7R)-7-ethyl-5,6,7,8-tetrahydro-5-methyl-8-(1-methylethyl)-6-oxo-2-pteridinyl]amino]-3-methoxy-benzamide]
MTD ([1]; 2-hr infusion on days 1 and 8 of 21 day cycle): 150 mg
patients with partial responses (bladder cancer and melanoma, respectively) ([1]; 27 patients treated, days 1 and 8 every 3 weeks): Two
patients achieved partial response (preliminary anti-tumor activity) [1, 3]: 1 patient
patients achieved stable disease [1, 3]: 10 patients
dose limiting toxicities (DLTs) ([1]; human, in vivo): reversible thrombocytopenia, neutropenia and febrile neutropenia
PK behavior [2]: multi-compartmental
clearance ([2]; human, in vivo, iv): 807 mL/min
half-life ([2]; human, in vivo, iv, read-out: mean terminal elimination half-life (converted)): 107 h
Vd ([2]; human, in vivo, iv, read-out: volume of distribution): 4500 L
